In PubChem BioAssay (NCI):
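Growth conditions: 96-well plates. Treatment: test compound, 48 hours, 5 concentrations. Analysis: linear interpolation between bracketing concentrations; unreached endpoints set to highest concentration. TGI marks complete inhibition of growth.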

Experiments:
Assay in all cases: DTP human tumour cell line panel, 48 h
786-0 renal = tested on: 786-0 renal
A498 renal = tested on: A498 renal
A549 NSCLC = tested on: A549 NSCLC
ACHN renal = tested on: ACHN renal
CAKI-1 renal = tested on: CAKI-1 renal
CCRF-CEM leukemia = tested on: CCRF-CEM leukemia
COLO 205 colon = tested on: COLO 205 colon
DLD-1 colon = tested on: DLD-1 colon
DMS 114 small cell lung = tested on: DMS 114 small cell lung
DMS 273 small cell lung = tested on: DMS 273 small cell lung
EKVX NSCLC = tested on: EKVX NSCLC
HCC-2998 colon = tested on: HCC-2998 colon
HCT-116 colon = tested on: HCT-116 colon
HCT-15 colon = tested on: HCT-15 colon
HL-60(TB) leukemia = tested on: HL-60(TB) leukemia
HOP-18 NSCLC = tested on: HOP-18 NSCLC
HOP-62 NSCLC = tested on: HOP-62 NSCLC
HOP-92 NSCLC = tested on: HOP-92 NSCLC
HT29 colon = tested on: HT29 colon
IGROV1 ovarian = tested on: IGROV1 ovarian
K-562 leukemia = tested on: K-562 leukemia
KM12 colon = tested on: KM12 colon
KM20L2 colon = tested on: KM20L2 colon
LOX IMVI melanoma = tested on: LOX IMVI melanoma
LXFL 529 NSCLC = tested on: LXFL 529 NSCLC
M14 melanoma = tested on: M14 melanoma
MALME-3M melanoma = tested on: MALME-3M melanoma
NCI-H226 lung = tested on: NCI-H226 lung
NCI-H23 lung = tested on: NCI-H23 lung
NCI-H460 lung = tested on: NCI-H460 lung
NCI-H522 lung = tested on: NCI-H522 lung
OVCAR-3 ovarian = tested on: OVCAR-3 ovarian
OVCAR-4 ovarian = tested on: OVCAR-4 ovarian
OVCAR-5 ovarian = tested on: OVCAR-5 ovarian
OVCAR-8 ovarian = tested on: OVCAR-8 ovarian
RPMI-8226 leukemia = tested on: RPMI-8226 leukemia
RXF 393 renal = tested on: RXF 393 renal
RXF-631 renal = tested on: RXF-631 renal
SF-268 CNS = tested on: SF-268 CNS
SF-295 CNS = tested on: SF-295 CNS
SF-539 CNS = tested on: SF-539 CNS
SK-MEL-2 melanoma = tested on: SK-MEL-2 melanoma
SK-MEL-28 melanoma = tested on: SK-MEL-28 melanoma
SK-MEL-5 melanoma = tested on: SK-MEL-5 melanoma
SK-OV-3 ovarian = tested on: SK-OV-3 ovarian
SN12C renal = tested on: SN12C renal
SNB-19 CNS = tested on: SNB-19 CNS
SNB-75 CNS = tested on: SNB-75 CNS
SNB-78 CNS = tested on: SNB-78 CNS
SR leukemia = tested on: SR leukemia
SW-620 colon = tested on: SW-620 colon
TK-10 renal = tested on: TK-10 renal
U251 CNS = tested on: U251 CNS
UACC-257 melanoma = tested on: UACC-257 melanoma
UACC-62 melanoma = tested on: UACC-62 melanoma
UO-31 renal = tested on: UO-31 renal
XF 498 CNS = tested on: XF 498 CNS
M19-MEL melanoma = tested on: M19-MEL melanoma
MOLT-4 leukemia = tested on: MOLT-4 leukemia

Work on Cn1c2c([N+](=O)[O-])[se]nc2c(=O)n1-c1ccc([N+](=O)[O-])cc1 yielded a TGI (786-0 renal) of 6.5 µM, a TGI (A498 renal) of 23.7 µM and a TGI (A549 NSCLC) of 20.6 µM. For the same compound, the TGI (ACHN renal) was 3.71 µM, the TGI (CAKI-1 renal) was 4.03 µM and the TGI (CCRF-CEM leukemia) was > 100 µM. It also gave a TGI (COLO 205 colon) of 4.23 µM, a TGI (DLD-1 colon) of 2.69 µM and a TGI (DMS 114 small cell lung) of 0.575 µM. For the same compound, the TGI (DMS 273 small cell lung) was 6.96 µM, the TGI (EKVX NSCLC) was 5.23 µM and the TGI (HCC-2998 colon) was 3.62 µM. For the same compound, the TGI (HCT-116 colon) was 3.39 µM, the TGI (HCT-15 colon) was 2.73 µM and the TGI (HL-60(TB) leukemia) was > 23.1 µM. For the same compound, the TGI (HOP-18 NSCLC) was 5.17 µM, the TGI (HOP-62 NSCLC) was 14.2 µM and the TGI (HOP-92 NSCLC) was 3.37 µM. The TGI (HT29 colon) was 8.12 µM, the TGI (IGROV1 ovarian) was 2.59 µM and the TGI (K-562 leukemia) was > 100 µM. The TGI (KM12 colon) was 15.7 µM, the TGI (KM20L2 colon) was 18.3 µM and the TGI (LOX IMVI melanoma) was 6.88 µM. For the same compound, the TGI (LXFL 529 NSCLC) was 2.5 µM, the TGI (M14 melanoma) was 2.62 µM and the TGI (MALME-3M melanoma) was 3.23 µM. The TGI (NCI-H226 lung) was 7.91 µM, the TGI (NCI-H23 lung) was 4.49 µM and the TGI (NCI-H460 lung) was 6.77 µM. The TGI (NCI-H522 lung) was 2.94 µM, the TGI (OVCAR-3 ovarian) was 3.12 µM and the TGI (OVCAR-4 ovarian) was 0.909 µM. The TGI (OVCAR-5 ovarian) was 4.44 µM, the TGI (OVCAR-8 ovarian) was 2.72 µM and the TGI (RPMI-8226 leukemia) was 5.51 µM. The TGI (RXF 393 renal) was 2.21 µM, the TGI (RXF-631 renal) was 4.04 µM and the TGI (SF-268 CNS) was 4.77 µM. For the same compound, the TGI (SF-295 CNS) was 11.6 µM, the TGI (SF-539 CNS) was 4.49 µM and the TGI (SK-MEL-2 melanoma) was 11.2 µM. The TGI (SK-MEL-28 melanoma) was 4.39 µM, the TGI (SK-MEL-5 melanoma) was 14.6 µM and the TGI (SK-OV-3 ovarian) was 6.1 µM. For the same compound, the TGI (SN12C renal) was 3.46 µM, the TGI (SNB-19 CNS) was 18.4 µM and the TGI (SNB-75 CNS) was 7.63 µM. For the same compound, the TGI (SNB-78 CNS) was 3.76 µM, the TGI (SR leukemia) was 0.271 µM and the TGI (SW-620 colon) was 1.48 µM. It also gave a TGI (TK-10 renal) of 16.2 µM, a TGI (U251 CNS) of 7.04 µM and a TGI (UACC-257 melanoma) of 4.17 µM. It also gave a TGI (UACC-62 melanoma) of 3.25 µM, a TGI (UO-31 renal) of 3.59 µM and a TGI (XF 498 CNS) of 3.71 µM.
For NCCCCCS(=O)(=O)O, the TGI (786-0 renal) was > 100 µM, the TGI (A498 renal) was > 100 µM and the TGI (A549 NSCLC) was > 100 µM. For the same compound, the TGI (ACHN renal) was > 100 µM, the TGI (CCRF-CEM leukemia) was > 100 µM and the TGI (COLO 205 colon) was > 100 µM. The TGI (DLD-1 colon) was > 100 µM, the TGI (DMS 114 small cell lung) was > 100 µM and the TGI (DMS 273 small cell lung) was > 100 µM. The TGI (EKVX NSCLC) was > 100 µM, the TGI (HCC-2998 colon) was > 100 µM and the TGI (HCT-116 colon) was > 100 µM. The TGI (HCT-15 colon) was > 100 µM, the TGI (HL-60(TB) leukemia) was > 100 µM and the TGI (HOP-18 NSCLC) was > 100 µM. The TGI (HOP-62 NSCLC) was > 100 µM, the TGI (HT29 colon) was > 100 µM and the TGI (IGROV1 ovarian) was > 100 µM. The TGI (K-562 leukemia) was > 100 µM, the TGI (KM12 colon) was > 100 µM and the TGI (KM20L2 colon) was > 100 µM. The TGI (LOX IMVI melanoma) was > 100 µM, the TGI (LXFL 529 NSCLC) was > 100 µM and the TGI (M14 melanoma) was > 100 µM. For the same compound, the TGI (M19-MEL melanoma) was > 100 µM, the TGI (MALME-3M melanoma) was > 100 µM and the TGI (MOLT-4 leukemia) was > 100 µM. For the same compound, the TGI (NCI-H23 lung) was > 100 µM, the TGI (NCI-H460 lung) was > 100 µM and the TGI (NCI-H522 lung) was > 100 µM. For the same compound, the TGI (OVCAR-3 ovarian) was > 100 µM, the TGI (OVCAR-4 ovarian) was > 100 µM and the TGI (OVCAR-5 ovarian) was > 100 µM. The TGI (OVCAR-8 ovarian) was > 100 µM, the TGI (RXF 393 renal) was > 100 µM and the TGI (RXF-631 renal) was > 100 µM. The TGI (SF-268 CNS) was > 100 µM, the TGI (SF-539 CNS) was > 100 µM and the TGI (SK-MEL-2 melanoma) was > 100 µM. The TGI (SK-MEL-28 melanoma) was > 100 µM, the TGI (SK-MEL-5 melanoma) was > 100 µM and the TGI (SK-OV-3 ovarian) was > 100 µM. For the same compound, the TGI (SN12C renal) was > 100 µM, the TGI (SNB-19 CNS) was > 100 µM and the TGI (SNB-75 CNS) was > 100 µM. The TGI (SNB-78 CNS) was > 100 µM, the TGI (SR leukemia) was > 100 µM and the TGI (SW-620 colon) was > 100 µM. For the same compound, the TGI (TK-10 renal) was > 100 µM, the TGI (U251 CNS) was > 100 µM and the TGI (UACC-257 melanoma) was > 100 µM. For the same compound, the TGI (UACC-62 melanoma) was > 100 µM and the TGI (UO-31 renal) was > 100 µM.
For O=C1C2c3[nH]c4ccccc4c3[C@@H]3CCCCCCCCCCC3C2C(=O)N1c1ccccc1 (stereo partly specified), the TGI (786-0 renal) was 35.7 µM, the TGI (A549 NSCLC) was 62.4 µM and the TGI (ACHN renal) was > 100 µM. For the same compound, the TGI (COLO 205 colon) was 58.5 µM, the TGI (DLD-1 colon) was > 100 µM and the TGI (DMS 114 small cell lung) was 37 µM. For the same compound, the TGI (DMS 273 small cell lung) was > 100 µM, the TGI (EKVX NSCLC) was > 100 µM and the TGI (HCC-2998 colon) was > 100 µM. For the same compound, the TGI (HCT-15 colon) was > 100 µM, the TGI (HL-60(TB) leukemia) was 30.2 µM and the TGI (HOP-18 NSCLC) was 99.6 µM. The TGI (HT29 colon) was > 100 µM, the TGI (IGROV1 ovarian) was 43.6 µM and the TGI (K-562 leukemia) was 29.5 µM. For the same compound, the TGI (KM12 colon) was 42 µM, the TGI (LOX IMVI melanoma) was 43.3 µM and the TGI (LXFL 529 NSCLC) was 28.1 µM. The TGI (M14 melanoma) was 34.3 µM, the TGI (M19-MEL melanoma) was 57.4 µM and the TGI (NCI-H226 lung) was 95 µM. It also gave a TGI (NCI-H23 lung) of 37.5 µM, a TGI (NCI-H460 lung) of 34.8 µM and a TGI (OVCAR-3 ovarian) of 33 µM. For the same compound, the TGI (OVCAR-4 ovarian) was 57.5 µM, the TGI (OVCAR-5 ovarian) was > 100 µM and the TGI (OVCAR-8 ovarian) was 42 µM. The TGI (RPMI-8226 leukemia) was > 100 µM, the TGI (RXF 393 renal) was 32.7 µM and the TGI (RXF-631 renal) was 28 µM. It also gave a TGI (SF-268 CNS) of 48.1 µM, a TGI (SF-295 CNS) of 42.1 µM and a TGI (SF-539 CNS) of 24.3 µM. For the same compound, the TGI (SK-MEL-28 melanoma) was 58.8 µM, the TGI (SK-MEL-5 melanoma) was > 100 µM and the TGI (SK-OV-3 ovarian) was 23 µM. It also gave a TGI (SN12C renal) of 54 µM, a TGI (SNB-19 CNS) of 30.3 µM and a TGI (SNB-75 CNS) of 6.44 µM. For the same compound, the TGI (SNB-78 CNS) was 24.7 µM, the TGI (SR leukemia) was 43.3 µM and the TGI (SW-620 colon) was 35.5 µM. For the same compound, the TGI (TK-10 renal) was 44.3 µM, the TGI (U251 CNS) was 37.8 µM and the TGI (UACC-62 melanoma) was 59.2 µM. For the same compound, the TGI (UO-31 renal) was > 100 µM.
